Reference: patent US20220096507A1, “Parenteral Pharmaceutical Composition Comprising Azacitidine or Decitabine in DMSO” (Sandoz AG, priority 2020, published 2022)
Where two headings read alike, the source gives them in different places.

How the values were obtained:
[1] = bulk (non-pharmaceutical grade) substance, purity above 95%, Cayman leaflet; cited from earlier work
[2] = 250 mg/mL in DMSO, relative to week 0
Method: A 250 mg/mL solution of azacitidine (TEVA Sicor) in DMSO (Merck; Ph. Eur. grade quality) with a water content of less than 0.1 wt.-% was prepared and filled into (moisture proof) vials, which were subsequently sealed using rubber stoppers. […] The amount of azacitidine was analyzed using high performance liquid chromatography (HPLC) and comparing the integral of the azacitidine peak with the integral of a freshly prepared standard solution containing a predetermined amount of azacitidine.
HPLC measurements were carried out using an Agilent 1200 system (or equivalent). For detection, a UV detector (235 nm) was used. A YMC Hydrosphere C18 (250 mm*4.6 mm*[…]) column and a flow rate of 1.0 mL/min and a gradient of aq. pH 7 buffer solution (containing disodium hydrogen phosphate, orthophosphoric acid and ammonium formate)/acetonitrile from 100:0 to 40:60 were employed.

[3] = at 25° C. in water; cited from earlier work

## Nc1ncn([C@H]2C[C@H](O)[C@@H](CO)O2)c(=O)n1 [decitabine, 5-aza-2′-deoxycytidine]
[1]
  solubility in bulk DMSO: approximately 30 mg/mL

## Nc1ncn([C@@H]2O[C@H](CO)[C@@H](O)[C@H]2O)c(=O)n1 [azacitidine, 5-azacytidine]
[1]
  solubility in bulk DMSO: approximately 30 mg/mL
[2]; water <0.1 wt.-%, day 0
  % of azacitidine at 25° C.: 100%
  % of azacitidine at 40° C.: 100%
[2]; day 7
  % of azacitidine at 25° C.: 100%
  % of azacitidine at 40° C.: 100%
[2]; day 14
  % of azacitidine at 25° C.: 100%
  % of azacitidine at 40° C.: 100%
[2]; day 21
  % of azacitidine at 25° C.: 100%
  % of azacitidine at 40° C.: 100%
[2]; day 28
  % of azacitidine at 25° C.: 100%
  % of azacitidine at 40° C.: 100%
[2]; day 56
  % of azacitidine at 25° C.: 100%
  % of azacitidine at 40° C.: 99%
[2]; day 98
  % of azacitidine at 25° C.: 100%
  % of azacitidine at 40° C.: 96%
[2]; day 182
  % of azacitidine at 25° C.: 100%
  % of azacitidine at 40° C.: 94%
[3]
  solubility of azacitidine in water: 13.4 mg/mL
